The text below walks through data of patent US9079876B2, “Imidazole derivatives and preparation method and use thereof” (Beijing Orbiepharm Co., Ltd., priority 2010, dated 2015).

For orientation: AUC(0-t) means the area under the concentration-time curve up to a stated or last time point. Higher therefore signals more exposure. A word on the clearance: it is the volume of plasma or blood freed of the substance per unit of time. What is called half-life is the time in which the quantity being followed falls by half. A high value points to slow decline.

Series [1] can be described thus: Pharmacokinetic study, intravenous, rats. It is filed as in vivo. Particulars: male SD rats, IV 2 mg/kg. The procedure:
Cimicoxib (cimicoxib) was IV administrated to male SD rats in vivo [2 mg/kg, 2 mg/ml, menstruum: DMSO/PEG 400/30% HP-b-CD ([…])], T1/2 was 3.20 h. The half-life of compound 1 was longer than cimicoxib.

Series [2] has as its system mice forced swimming immobility time. Description: Forced swimming test in mice (anti-depression model). The class given is in vivo, Male Kunming mice. The procedure: In Vivo Study: The Forced Swimming Test in Mice (Evaluation on Anti-Depression Model)
Male Kunming mice, approximately 20 g, were randomized into six groups, i.e. normal group, positive drug group (fluoxetine 20 mg/kg), group A (5 mg/kg Compound 1), group B (10 mg/kg Compound 1), group C (20 mg/kg Compound 1), and group D (40 mg/kg Compound 1).
Single Dose Test: Mice were normally fed for 1 day and allowed to adapt to the environment. Then the mice were fasted (except water) for 16 hours, and were intragastrically administrated with a single dose of the test drug, and the normal group was intragastrically administrated with an equivalent amount of distilled water. 40 min after administration, the mice were placed in forced swimming test device (swimming environment: pool diameter 12.5 cm cylinder, water temperature 25° C. and water depth 10 cm). Mice swam for six minutes, and the immobility time (i.e., the time during which the limbs were immobile, or only the feet were thrashing or paddling) was recorded with an animal behavioral record system, for the latter 4 min within the 6 min recording period, and was used for statistical analysis.
(§1) Study with Three-Day Consecutive Dosing: Mice were normally fed for 1 day and allowed to adapt to the environment. Then the mice were intragastrically administrated with the test drug consecutively for three days (once per day). The normal group was intragastrically administrated equivalent amount of distilled water. Mice were fasted (except water) for 16 hours before the last dosing. 40 min after the last dosing, the mice were placed in forced swimming test device (swimming environment: pool diameter 12.5 cm cylinder, water temperature 25° C. and water depth 10 cm). Mice swam for six minutes, and the immobility time (i.e., the time during which the limbs were immobile, or only the feet were thrashing or paddling) was recorded with an animal behavioral record system, for the latter 4 min within the 6 min recording period, and was used for statistical analysis.
as §1, with “Seven-Day” for “Three-Day”, “seven” for “three”

Series [3] addresses T1, COX-2 (Canis lupus familiaris, UniProt Q8SPQ9).
T1 construct: in vitro activity study using beagle dog whole blood was conducted; from tissue; host or cells: beagle dog whole blood, stimulated with LPS (by the same method as for human blood)
T1 sequence (Q8SPQ9 18-604): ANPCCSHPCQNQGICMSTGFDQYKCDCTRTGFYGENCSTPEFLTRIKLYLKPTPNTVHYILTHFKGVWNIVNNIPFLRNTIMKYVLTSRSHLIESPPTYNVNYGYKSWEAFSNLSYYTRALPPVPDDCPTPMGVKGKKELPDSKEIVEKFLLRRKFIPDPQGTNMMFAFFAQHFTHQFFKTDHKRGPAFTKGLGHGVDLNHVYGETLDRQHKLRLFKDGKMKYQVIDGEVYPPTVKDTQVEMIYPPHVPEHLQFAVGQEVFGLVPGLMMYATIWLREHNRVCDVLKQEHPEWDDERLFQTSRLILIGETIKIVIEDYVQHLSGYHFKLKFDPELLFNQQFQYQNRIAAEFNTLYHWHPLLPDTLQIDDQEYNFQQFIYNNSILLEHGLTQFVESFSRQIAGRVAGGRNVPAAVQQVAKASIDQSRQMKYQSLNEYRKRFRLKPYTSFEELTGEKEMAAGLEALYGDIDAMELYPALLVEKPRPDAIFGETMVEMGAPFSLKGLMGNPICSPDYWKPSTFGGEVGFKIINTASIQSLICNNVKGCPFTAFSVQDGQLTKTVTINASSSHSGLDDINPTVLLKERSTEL
Briefly: Dog whole blood in vitro activity assay, COX-2. The class given is cell-based, beagle dog.

Series [4] deals with T2, cyclooxygenase-1 (COX-1 enzyme) (Homo sapiens, UniProt P23219).
T2 construct: from tissue; host or cells: human whole blood without heparin (platelets) from healthy volunteers
Briefly: Human whole blood in vitro activity assay, COX-1 (TXB2 by EIA). It is filed as cell-based. The conditions noted are these: read-out: IC50 (μg/mL) COX-1 (converted). On the procedure: Human whole blood in vitro activity study: inhibition of activity of cyclooxygenase-1 (COX-1 enzyme) and cyclooxygenase-2 (COX-2 enzyme) in human blood. […] The blood samples were divided into two parts: one was used for detecting COX-1 enzyme activity, and the other was used for detecting COX-2 enzyme activity. The compounds were dissolved in DMSO, and were prepared in advance into 2 μL solutions in respective concentrations of 500, 50, 5, 0.5, 0.05, 0.005, 0.0005 μg/mL. 200 μL whole blood without heparin was added in the tubes containing the compounds, and then incubated at 37° C. for 1 hour. The activity of COX-1 enzyme was detected by determining the amount of thromboxane B2 (TXB2) synthesized by platelet using an EIA kit. Samples tested without the compounds were negative controls. For COX-2, 200 μL whole blood with heparin was added in the tubes containing the compounds and in the tubes containing 10 μg/mL LPS. LPS control and blank control with solvent only were used respectively for determining the maximum value and the background value of the PGE2 produced therefrom. The samples were incubated at 37° C. for 24 hours, and then centrifuged to collect serum/plasma, which was stored at −80° C. for detection by an EIA kit. The EIA kit of Cayman Company was used, the amounts of TXB2 and PGE2 were determined in accordance to the manufacturer's instructions, and the activities of COX-1 and COX-2 were tested respectively.

T2 sequence (P23219 24-599): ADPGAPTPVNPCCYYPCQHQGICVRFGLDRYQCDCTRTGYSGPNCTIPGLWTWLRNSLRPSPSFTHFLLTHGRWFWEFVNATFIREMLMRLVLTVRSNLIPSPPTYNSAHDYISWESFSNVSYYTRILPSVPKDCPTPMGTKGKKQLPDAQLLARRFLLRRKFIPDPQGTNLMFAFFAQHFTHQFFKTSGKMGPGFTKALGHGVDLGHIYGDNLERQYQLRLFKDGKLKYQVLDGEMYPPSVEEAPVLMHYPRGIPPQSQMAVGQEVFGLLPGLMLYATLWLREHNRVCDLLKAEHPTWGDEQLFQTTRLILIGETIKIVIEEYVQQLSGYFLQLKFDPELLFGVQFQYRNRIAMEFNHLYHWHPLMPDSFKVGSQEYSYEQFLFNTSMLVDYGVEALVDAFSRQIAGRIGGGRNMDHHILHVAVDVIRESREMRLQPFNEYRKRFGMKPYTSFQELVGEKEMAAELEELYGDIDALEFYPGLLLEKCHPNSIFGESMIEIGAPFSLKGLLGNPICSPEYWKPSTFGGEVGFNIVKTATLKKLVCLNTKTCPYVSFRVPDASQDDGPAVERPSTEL

`CS(=O)(=O)c1ccc(-n2cnc(Cl)c2-c2ccccc2)nc1` [Compound 1, 2-(4-chloro-5-phenyl-1H-imidazol-1-yl)-5-(methylsulfonyl)pyridine] displayed a t1/2 in series [1] of 5.37 ± 0.51 h. The compound also had an AUC(0-t) in series [1] (rat, in vivo) of 11400 ± 949 ng·h/mL. Also, the C0 in series [1] (rat, in vivo) turned out to be 1700 ± 259 ng/mL. This compound also displayed a clearance in series [1] (rat, in vivo) of 2.83 ± 0.27 mL/min/kg. The half-life in series [1] (rat, in vivo, 2 mg/ml, DMSO/PEG 400/30% HP-b-CD) was 5.37 h. The Vd in series [1] (rat, in vivo, read-out: Vss) came to 1.16 ± 0.02 L/kg. Moreover, the “forced swimming Immobility time” value is “tendency of reduction in forced swimming immobility time” in series [2] (3 days consecutive administration, 5 mg/kg intragastric, 5 mg/kg); 119.73 ± 24.55 in series [2] (3 days consecutive administration, 5 mg/kg intragastric, 5 mg/kg, in s (unit assumed)); 91.73 ± 22.08 in series [2] (3 days consecutive administration, 10 mg/kg intragastric, in s (unit assumed)); 83.12 ± 32.57 in series [2] (3 days consecutive administration, 20 mg/kg intragastric, in s (unit assumed)); 63.32 ± 30.46 in series [2] (3 days consecutive administration, 40 mg/kg intragastric, in s (unit assumed)); “tendency of reduction in forced swimming immobility time” in series [2] (7 days consecutive administration, 5 mg/kg intragastric, 5 mg/kg). The “forced swimming Immobility time” value is recorded as 102.72 ± 34.07 in series [2] (7 days consecutive administration, 5 mg/kg intragastric, 5 mg/kg, in s (unit assumed)); 86.40 ± 34.65 in series [2] (7 days consecutive administration, 10 mg/kg intragastric, in s (unit assumed)); 86.84 ± 30.21 in series [2] (7 days consecutive administration, 20 mg/kg intragastric, in s (unit assumed)); 83.84 ± 35.50 in series [2] (7 days consecutive administration, 40 mg/kg intragastric, in s (unit assumed)); “tendency of reduction in forced swimming immobility time” in series [2] (single dose, 5 mg/kg intragastric, 40 min after administration, 5 mg/kg); 102.24 ± 27.33 in series [2] (single dose, 5 mg/kg intragastric, 40 min after administration, 5 mg/kg, in s (unit assumed)). In addition, the “forced swimming Immobility time” value in series [2] (single dose, 10 mg/kg intragastric, 40 min after administration, in s (unit assumed)) turned out to be 92.85 ± 38.81; in series [2] (single dose, 20 mg/kg intragastric, 40 min after administration, in s (unit assumed)), 87.55 ± 42.50; in series [2] (single dose, 40 mg/kg intragastric, 40 min after administration, in s (unit assumed)), 90.86 ± 39.53. Further, the IC50COX-1/IC50COX-2 in series [3] was found to be 83.2. Besides, the IC50 in series [3] (read-out: IC50 (μg/mL) COX-2 (converted)) was 2.64 µM; in series [4] it was 39.5 µM.
